From ChEMBL document CHEMBL1201862, “PubChem BioAssay data set” (2004)
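Protocol summary: plate cells (96-well), add compound at 5 concentrations, incubate 48 h, interpolate endpoints linearly. Abbreviation: GI50, concentration required for 50% inhibition of growth.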 Active and inactive are the calls of the source. Cut-off read from the data, not from the text of the source: active = GI50 up to about 1.1 µM and inactive = higher.

Assays:
Assay in all cases: growth of human tumour cells (NCI), 48 h
Malme-3M = system: Malme-3M
HT-29 = system: HT-29
HCC 2998 = system: HCC 2998
SN12C = system: SN12C
LOX IMVI = system: LOX IMVI
A498 = system: A498
OVCAR-8 = system: OVCAR-8
UO-31 = system: UO-31
RPMI-8226 = system: RPMI-8226
SK-MEL-5 = system: SK-MEL-5
NCI-H522 = system: NCI-H522
U-251 = system: U-251
MOLT-4 = system: MOLT-4
NCI-H460 = system: NCI-H460
HL-60 = system: HL-60
HOP-62 = system: HOP-62
KM12 = system: KM12
OVCAR-4 = system: OVCAR-4
SNB-19 = system: SNB-19
HCT-15 = system: HCT-15

Compound | GI50 (Malme-3M) | GI50 (HT-29) | GI50 (HCC 2998) | GI50 (SN12C) | GI50 (LOX IMVI) | GI50 (A498) | GI50 (OVCAR-8) | GI50 (UO-31) | GI50 (RPMI-8226) | GI50 (SK-MEL-5) | GI50 (NCI-H522) | GI50 (U-251) | GI50 (MOLT-4) | GI50 (NCI-H460) | GI50 (HL-60) | GI50 (HOP-62) | GI50 (KM12) | GI50 (OVCAR-4) | GI50 (SNB-19) | GI50 (HCT-15) [µM]
CCOC(=O)N1CCN(C(=O)Nc2cccc3ccccc23)CC1 | > 10 µM (inactive) | > 10 µM (inactive) | > 10 µM (inactive) | > 10 µM (inactive) | > 10 µM (inactive) | > 10 µM (inactive) | > 10 µM (inactive) | > 10 µM (inactive) | > 10 µM (inactive) | > 10 µM (inactive) | > 10 µM (inactive) | > 10 µM (inactive) | > 10 µM (inactive) | > 10 µM (inactive) | > 10 µM (inactive) | > 10 µM (inactive) | > 10 µM (inactive) | > 10 µM (inactive) | > 10 µM (inactive) | > 10
CNC(=O)SCC(NC(=O)CCC(N)C(=O)O)C(=O)NCC(=O)O (stereo unspecified) | > 65.5 µM (inactive) | > 84.5 µM (inactive) | > 100 µM (inactive) | > 89.7 µM (inactive) | 67.9 µM (inactive) | > 100 µM (inactive) | > 100 µM (inactive) | > 100 µM (inactive) | 42.3 µM (inactive) | > 100 µM (inactive) | > 86.5 µM (inactive) | > 86.7 µM (inactive) | 60.8 µM (inactive) | > 100 µM (inactive) | > 31.6 µM (inactive) | > 100 µM (inactive) | > 100 µM (inactive) | > 100 µM (inactive) | > 100 µM (inactive) | > 78
CC(C)=CCc1c(C)cc2cc3c(c(O)c2c1O)C(=O)C=C(O)C3(CC=C(C)C)C/C=C(\C)CO (stereo unspecified) | 32.3 µM (inactive) | 37.2 µM (inactive) | 45.2 µM (inactive) | 31.1 µM (inactive) | 38.5 µM (inactive) | 8.81 µM (inactive) | 28.8 µM (inactive) | 29 µM (inactive) | 20.7 µM (inactive) | 16.4 µM (inactive) | 27.9 µM (inactive) | 29.6 µM (inactive) | 23.2 µM (inactive) | 27.4 µM (inactive) | 19.4 µM (inactive) | 36.8 µM (inactive) | 41.9 µM (inactive) | 37 µM (inactive) | 39.8 µM (inactive) | 28
O=C1CCCCC1C(O)(C(F)(F)F)C(F)(F)Cl (stereo unspecified) | > 10 µM (inactive) | > 10 µM (inactive) | > 10 µM (inactive) | > 10 µM (inactive) | > 10 µM (inactive) | > 10 µM (inactive) | > 10 µM (inactive) |  | > 10 µM (inactive) | > 10 µM (inactive) | > 10 µM (inactive) | > 10 µM (inactive) | > 10 µM (inactive) | > 10 µM (inactive) | > 10 µM (inactive) | > 10 µM (inactive) | > 10 µM (inactive) | > 10 µM (inactive) | > 10 µM (inactive) | > 10
CC(=O)OCC1OC(OC(C)=O)C(NC#N)C(OC(C)=O)C1OC(C)=O (stereo unspecified) | > 100 µM (inactive) | > 100 µM (inactive) | > 100 µM (inactive) | > 100 µM (inactive) | 39.2 µM (inactive) | > 100 µM (inactive) | > 100 µM (inactive) | 36.1 µM (inactive) | 67.8 µM (inactive) | 73.1 µM (inactive) | > 100 µM (inactive) | > 100 µM (inactive) | 86.5 µM (inactive) | 68.1 µM (inactive) | > 100 µM (inactive) | > 100 µM (inactive) | > 100 µM (inactive) | > 100 µM (inactive) | > 100 µM (inactive) | > 100
N#Cc1c(NC(=S)Nc2ccc(Cl)cc2)sc2c1CCCC2 | 41.2 µM (inactive) | > 100 µM (inactive) | 64.1 µM (inactive) | 3.37 µM (inactive) | > 100 µM (inactive) | > 100 µM (inactive) | 14.8 µM (inactive) | > 100 µM (inactive) | 24.2 µM (inactive) | > 100 µM (inactive) | 25.8 µM (inactive) | > 100 µM (inactive) | 16.6 µM (inactive) |  | 34.8 µM (inactive) |  | > 100 µM (inactive) | 5.16 µM (inactive) | > 100 µM (inactive) | > 100
CC1(C)CCCCCC(C)(CCCO)C1=O (stereo unspecified) | > 100 µM (inactive) | > 100 µM (inactive) | > 100 µM (inactive) | > 100 µM (inactive) | > 100 µM (inactive) | > 100 µM (inactive) | > 100 µM (inactive) | > 100 µM (inactive) | > 100 µM (inactive) | > 100 µM (inactive) | > 100 µM (inactive) | > 100 µM (inactive) | > 100 µM (inactive) | > 100 µM (inactive) | > 100 µM (inactive) | > 100 µM (inactive) | > 100 µM (inactive) | > 100 µM (inactive) | > 100 µM (inactive) | > 100
FC(F)(F)C1=NC(=NNc2nnc(-c3ccccc3)c(-c3ccccc3)n2)N=C(C(F)(F)F)C1 | > 100 µM (inactive) | 16.6 µM (inactive) | 9.12 µM (inactive) | > 72.9 µM (inactive) | 12.7 µM (inactive) | 11.6 µM (inactive) | 25.8 µM (inactive) | 4.11 µM (inactive) | 12.2 µM (inactive) | 15.8 µM (inactive) | 9.51 µM (inactive) | > 29 µM (inactive) | 5.51 µM (inactive) | 7.71 µM (inactive) | 5.22 µM (inactive) | 13.4 µM (inactive) | 33.2 µM (inactive) | 13.1 µM (inactive) | 35 µM (inactive) | 11
C=CCN1C(=O)/C(=C/c2cccs2)N=C1SC1OC(COC(=O)c2ccccc2)C(OC(=O)c2ccccc2)C1OC(=O)c1ccccc1 (stereo unspecified) | > 100 µM (inactive) |  | > 100 µM (inactive) |  | > 100 µM (inactive) | > 100 µM (inactive) | > 100 µM (inactive) |  | 22.4 µM (inactive) | > 100 µM (inactive) | 11.4 µM (inactive) | > 100 µM (inactive) | > 100 µM (inactive) | > 100 µM (inactive) | > 100 µM (inactive) | > 100 µM (inactive) | > 100 µM (inactive) | > 100 µM (inactive) |  | > 100
Cc1nc2ccc(NC3OCC(O)C(O)C3O)cc2c(=O)n1-c1ccccc1 (stereo unspecified) | > 100 µM (inactive) | > 100 µM (inactive) | > 100 µM (inactive) | > 100 µM (inactive) | > 100 µM (inactive) | > 100 µM (inactive) | > 100 µM (inactive) | > 100 µM (inactive) | > 100 µM (inactive) | > 100 µM (inactive) | > 100 µM (inactive) | > 100 µM (inactive) | > 100 µM (inactive) | > 100 µM (inactive) | 49.7 µM (inactive) | > 100 µM (inactive) | > 100 µM (inactive) | > 100 µM (inactive) | > 100 µM (inactive) | > 100
CC(=O)OC1CCn2c1nc1cc([N+](=O)[O-])c(C)cc12 (stereo unspecified) | > 100 µM (inactive) | > 100 µM (inactive) | > 100 µM (inactive) | > 100 µM (inactive) | > 100 µM (inactive) | > 100 µM (inactive) | > 100 µM (inactive) | > 100 µM (inactive) | > 100 µM (inactive) | > 100 µM (inactive) | > 100 µM (inactive) | > 100 µM (inactive) | > 100 µM (inactive) | > 100 µM (inactive) | > 100 µM (inactive) |  | > 100 µM (inactive) | > 100 µM (inactive) | > 100 µM (inactive) | > 100
O=C1C=C(N2CC2)C(=O)C=C1N1CC1 | 0.107 µM (active) | 0.204 µM (active) | 0.307 µM (active) | 0.122 µM (active) | 0.0849 µM (active) | 0.0318 µM (active) |  | 0.104 µM (active) | 0.227 µM (active) | 0.101 µM (active) | 0.0652 µM (active) | 0.229 µM (active) | 0.0344 µM (active) | 0.0401 µM (active) | 0.0265 µM (active) | 0.136 µM (active) | 0.824 µM (active) | 0.216 µM (active) | 0.904 µM (active) | 0.102
